Experimental data from patent US20080122428A1, “Optimized Determination of Voltage Changes Using a Voltage-Sensitive Dye” (Max-Planck-Gesellschaft zur Forderungder Wissenschaften e. …, priority 2003, published 2008).
Where “and” joins values, the source holds several entries; their conditions need not be identical. Equal values may be shown once.

How the values were obtained:
[1] = test system: Retzius cells (leech neurons); settings: cited from earlier work; for shift of the excitation spectrum per membrane voltage: Kuhn and Fromherz, 2003
[2] = test system: HEK293 cells; assay: Voltage sensitivity in HEK293 cells by extracellular electric field, laser line scans with one- or two-photon excitation; type: cell-based
Protocol: HEK293 cells (DSMZ GmbH, Braunschweig, Germany) were cultured using standard methods on glass coverslips (diameter 24 mm, Assistent, Glaswarenfabrik Karl Hecht KG, Sondheim, Germany). The coverslips were coated with fibronectin (No. 68885, Boehringer-Mannheim, Germany) in PBS (140 mM NaCl, 2.7 mM KCl, 1.5 mM KH2PO4, 6.5 mM Na2HPO4×2H2O) by incubation for 45 min in a 10 μg/ml fibronectin solution and a single subsequent wash with PBS. The cells were plated at densities of 15000 cells per coverslip and were used for up to three days after plating, while the cell density was still low. All measurements were done in a Ringer solution containing (in mM) 135 NaCl, 5.4 KCl, 1.0 MgCl2, 1.8 CaCl2 and 5.0 Hepes, adjusted to pH 7.2 with NaOH.
ANNINE-6 (FIG. 19a) was dissolved in a solution of 20% Pluronic F-127 DMSO (P-3000, Molecular Probes, Eugene, Oreg.) at a concentration of 0.5 mg/ml and sonicated for 15 min. The glass coverslip with the HEK293 cells was taken out of the culture well, exposed to the staining solution (dye stock solution diluted 1:100 into Ringer) for 5 min and finally washed with pure Ringer solution.
To change the voltage across the cell membrane we applied an extracellular electric field. This method (Gross et al., 1986) has a somewhat reduced voltage calibration accuracy but is much simpler than whole-cell recordings, for example, permitting the transfer of the recording chamber between microscope setups thereby allowing the exploration of a wider parameter range. Our custom-made chamber (FIG. 19b) consists of a 2.6 mm wide, and 30 mm long slit in a 0.5 mm thick PMMA (Plexiglas) plate. Two chlorided silver wires (diameter 0.127 mm, Cat. No. 7860, A-M Systems, INC., Everett, Wash.) for the application of the electrical field were fixed to the long edges of the channel with two-component epoxy resin glue (plus sofortfest, UHU, Bühl, Germany). This chamber was sealed on the bottom with a clean coverslip (24 mm×50 mm) attached with silicone grease (Bayer-silicone, Bayer AG, Leverkusen, Germany). The coverslip with the stained HEK293 cells was dried around the edges to get a watertight seal with silicone grease and then mounted cells down on the top side of the chamber. Two openings allowed the continuous perfusion (about 2 ml/min) with physiological saline using a gravity-fed perfusion system.
The voltage stimuli were generated by an arbitrary waveform generator (model 395, wavetek, Ismaning, Germany) and amplified by a custom-built push-pull circuit (using two operational amplifiers, OPA547, Texas Instruments Inc., Texas, USA, FIG. 19c). To avoid electrolysis at the electrodes and ionophoresis of cell-surface components all applied voltage waveforms were purely AC. Short pulses were used to minimize heating (FIG. 19d). The application of the pulse protocol was synchronized to the start of line scan acquisition.
For one-photon excitation we used laser scanning microscopes (Zeiss LSM 510 NLO and Leica TCS SP2) with Ar-ion laser excitation (458 nm, 488 nm, or 514 nm). We used laser illumination instead of, for example, Xe arc-lamps because narrow spectral width and high intensities are needed to obtain sufficient excitation of the dye at the spectral edge. The excitation light at the Zeiss microscope was coupled in via the main dichroic beam splitters (HFT 458/514, reflecting the 458 nm and 514 nm laser lines or HFT KP 700/488, a combined 700 nm short pass and 488 nm reflector). The emitted light was filtered by a long-pass filter (LP560). The Leica microscope uses an acousto-optical main beam splitter and fluorescence was collected in the range of 520 nm to 800 nm. The maximal excitation intensities at the sample were for the Zeiss (Leica) microscope: 1.3 mW (1.5 mW) at 514 nm, 200 μW (250 μW) at 488 nm and 28 μW (35 μW) at 458 nm. The pinhole was completely opened up (8.5 airy units) to collect as much light as possible. […]

[3] = test system: HEK293 cells; assay: Tight-seal whole-cell voltage-clamp recordings of HEK293 cells, sensitivity at 514 nm; type: cell-based; settings: four cells, voltage jumps +/−25, +/−50, +/−75 mV
Protocol: Whole-cell tight-seal voltage-clamp recordings on HEK293 cells were preformed using pipettes with a resistance of around 6 MOhm and an epc9 amplifier (HEKA, Göttingen, Germany).
To test our assumption about the extracellular stimulation the sensitivity at 514 nm was tested by controlling the membrane voltage directly using tight-seal whole-cell recordings of HEK293 cells (FIG. 22). The mean sensitivity measured in four cells using voltage jumps of +/−25, +/−50 and +/−75 mV is −0.37±0.02%/mV, in agreement with the results achieved by the external electric field method.

[4] = test system: HEK293 cells; assay: Example 4: HEK293 cells stained by bath application, alternating external electric fields, 1 kHz line scans; type: cell-based
From the text: ANNINE-6 is a new, completely anellated hemicyanine dye. […] Several biological preparations were used for testing. First, HEK293 cells were stained by bath application of the dye. Alternating external electric fields generated by applying voltages between two Ag/AgCl-wires in a closed chamber (1). To achieve the high light intensities, which are necessary to excite the dye at the very red edge of the excitation spectrum, we used laser scanning microscopes with Ar-Ion Laser for one-photon excitation (488 nm, 514 nm) and Ti:Sapphire Laser for two-photon excitation (976 nm). The fluorescence changes measured with 1 kHz line scans followed the applied voltage, which was alternated every 10 ms, without discernible delay. We found relative fluorescence increases of more that 60%/100 mV for hyperpolarizing membrane potential changes and decreases of more than 40%/100 mV for depolarizing membrane potential changes at 514 nm excitation wavelength. The asymmetry of the fluorescence change is expected given the spectral shape and a pure electrochromic spectral shift. We found changes of +40%/100 mV and −30%/100 mV both for one-photon excitation at 488 nm and two-photon excitation at 976 nm. Preliminary measurements from cultured hippocampal slices using a soluble variant of ANNINE-6 show fast fluorescence changes of up to 8% upon stimulation of the Schaffer collaterals in CA1. • (1) D. Gross, L. M. Loew and W. Webb. Biophys. J., 50: 339-348, 1986.

[5] = Maximal theoretical sensitivity for excitation in the Boltzmann tail; settings: from shift of 1.6 cm^−1/mV
From the text: A common approximation used for spectral shapes is the log-normal function (Siano and Metzler, 1969), which would imply an ever increasing, in fact, diverging sensitivity toward longer wavelengths and the vanishing of excitation above a wavelength of 591 nm. However, simple considerations predict a tail in the absorption spectrum F that follows a Boltzmann distribution (Hinshelwood, 1940)
because an electronic transition between the ground and the excited state with the energy difference h ν00c (h Planck constant, ν00 wavenumber of the 00 transition, c light velocity) and an excitation energy h νc ( ν wavenumber of excitation), which is assumed to be below h ν00c, requires additional vibrational energy E=h ν00c−h νc to reach the lowest excited state, in analogy to anti-Stokes lines in scattering theory. […]
for excitation in the Boltzmann tail (Δμ is the intramolecular charge displacement upon electronic excitation, d is the membrane thickness, θ is the angle between charge displacement and membrane normal). […] For comparison: the highest measured sensitivity value was −0.52±0.05%/mV (with 2-photon excitation at 1040 nm, corresponding to 520 nm). […]

SMILES: CCCCN(CCCC)c1ccc2c(ccc3c2ccc2c4cc[n+](CCCCS(=O)(=O)[O-])cc4ccc23)c1 [ANNINE-5]
- shift of the excitation spectrum per membrane voltage [1]: 1.3 cm^−1/mV

SMILES: CCCCCN(CCCCC)c1ccc(/C=C/C=C/c2cc[n+](CCCCS(=O)(=O)[O-])cc2)cc1 [RH-421, reference compound]
- shift of the excitation spectrum per membrane voltage [1]: 0.5 cm^−1/mV

SMILES: CCCCN(CCCC)c1ccc2c(ccc3c2ccc2c4ccc5c[n+](CCCCS(=O)(=O)[O-])ccc5c4ccc32)c1 [ANNINE-6]
- fluorescence change for large voltage swing ([2]; 100 mV depolarization, 514 nm): −28%
- fluorescence change for large voltage swing ([2]; 100 mV depolarization, 1040 nm): −40%
- fluorescence change for large voltage swing ([2]; 100 mV hyperpolarization, 514 nm): 50%
- fluorescence change for large voltage swing ([2]; 100 mV hyperpolarization, 1040 nm): 70%
- sensitivity ([2]; 515 nm, 1-photon, dye incorporated inside the cells (as expected)): 0.37 %/mV
- sensitivity ([2]; 515 nm, 2-photon, dye incorporated inside the cells (as expected)): 0.52 %/mV
- 2PE sensitivity higher than 1PE sensitivity at half the wavelength ([2]; 976 nm versus 488 nm, same cell): about 20%
- sensitivity at end of repeated line scans ([2]; after 900 line scans at 1040 nm over a period of over 2 h): −0.58±0.02 %/mV
- slope sensitivity at the resting potential, single cell ([2]; cell of FIG. 21a, one-photon 458 nm): −0.16 %/mV
- slope sensitivity at the resting potential, single cell ([2]; cell of FIG. 21a, one-photon 488 nm): −0.26 %/mV
- slope sensitivity at the resting potential, single cell ([2]; cell of FIG. 21a, one-photon 514 nm): −0.37 %/mV
- slope sensitivity at the resting potential, single cell ([2]; cell of FIG. 23, two-photon 960 nm): −0.35 %/mV
- slope sensitivity at the resting potential, single cell ([2]; cell of FIG. 23, two-photon 980 nm): −0.41 %/mV
- slope sensitivity at the resting potential, single cell ([2]; cell of FIG. 23, two-photon 1000 nm): −0.49 %/mV
- slope sensitivity at the resting potential, single cell ([2]; cell of FIG. 23, two-photon 1020 nm): −0.54 %/mV
- slope sensitivity at the resting potential, single cell ([2]; cell of FIG. 23, two-photon 1040 nm): −0.59 %/mV
- sensitivity ([2]; excitation wavelength 515 nm, 1-photon, dye at the outer side of the membrane): −0.37 %/mV
- small-signal fractional fluorescence change (mean sensitivity) ([2]; one-photon excitation 488 nm, four cells): −0.28 %/mV and −0.28±0.03 %/mV
- small-signal fractional fluorescence change (mean sensitivity) ([2]; one-photon excitation 514 nm, four cells): −0.35 %/mV and −0.35±0.03 %/mV
- sensitivity at begin of repeated line scans ([2]; single cell, excitation at 1040 nm): −0.59±0.01 %/mV
- small-signal fractional fluorescence change (mean sensitivity) ([2]; two-photon excitation 960 nm, 4 cells): −0.29 %/mV and −0.29±0.05 %/mV
- mean sensitivity ([2]; two-photon excitation 980 nm, 4 cells): −0.35±0.05 %/mV
- small-signal fractional fluorescence change (mean sensitivity) ([2]; two-photon excitation 1000 nm, 4 cells): −0.43 %/mV and −0.43±0.05 %/mV
- mean sensitivity ([2]; two-photon excitation 1020 nm, 4 cells): −0.47±0.06 %/mV
- small-signal fractional fluorescence change (mean sensitivity) ([2]; two-photon excitation 1040 nm, 4 cells): −0.52 %/mV and −0.52±0.06 %/mV and −0.52±0.05 %/mV
- mean sensitivity with direct control of membrane voltage [3]: −0.37±0.02 %/mV
- relative fluorescence decrease ([4]; depolarizing membrane potential changes, 514 nm): more than 40 %/100 mV
- relative fluorescence increase ([4]; hyperpolarizing membrane potential changes, 514 nm): > 60 %/100 mV
- relative fluorescence change, negative ([4]; one-photon excitation 488 nm): −30 %/100 mV
- relative fluorescence change, positive ([4]; one-photon excitation 488 nm): +40 %/100 mV
- relative fluorescence change, negative ([4]; two-photon excitation 976 nm): −30 %/100 mV
- relative fluorescence change, positive ([4]; two-photon excitation 976 nm): +40 %/100 mV
- Boltzmann-tail sensitivity (theoretical limit) [5]: −0.77 %/mV
- sensitivity in Leech ([1]; 488 nm, published (Kuhn and Fromherz, 2003)): −0.29 %/mV
- shift of the excitation spectrum per membrane voltage [1]: 1.6 cm^−1/mV

SMILES: CCCCN(CCCC)c1ccc2cc(C=Cc3cc[n+](CCCCS(=O)(=O)[O-])cc3)ccc2c1 [di-4-ANEPBS, reference compound]
- shift of the excitation spectrum per membrane voltage [1]: 0.9 cm^−1/mV
